# Measured values: PMC3991664, “Growth Inhibitory, Bactericidal, and Morphostructural Effects of Dehydrocostus Lactone from Magnolia sieboldii Leaves on Antibiotic-Susceptible and -Resistant Strains of Helicobacter pylori” (PLoS ONE, 2014)
# Target: T1, urease (UreB subunit) (Helicobacter pylori, UniProt P69996)
# T1 construct: native crude urease of H. pylori ATCC 43504 (UreA and UreB subunits); with UreA (urease subunit)
# Experiment: urease activity inhibition in crude urease preparation, indophenol (ammonia release) assay; Western blot of subunits
# Format: biochemical
# T1 sequence (P69996 whole entry): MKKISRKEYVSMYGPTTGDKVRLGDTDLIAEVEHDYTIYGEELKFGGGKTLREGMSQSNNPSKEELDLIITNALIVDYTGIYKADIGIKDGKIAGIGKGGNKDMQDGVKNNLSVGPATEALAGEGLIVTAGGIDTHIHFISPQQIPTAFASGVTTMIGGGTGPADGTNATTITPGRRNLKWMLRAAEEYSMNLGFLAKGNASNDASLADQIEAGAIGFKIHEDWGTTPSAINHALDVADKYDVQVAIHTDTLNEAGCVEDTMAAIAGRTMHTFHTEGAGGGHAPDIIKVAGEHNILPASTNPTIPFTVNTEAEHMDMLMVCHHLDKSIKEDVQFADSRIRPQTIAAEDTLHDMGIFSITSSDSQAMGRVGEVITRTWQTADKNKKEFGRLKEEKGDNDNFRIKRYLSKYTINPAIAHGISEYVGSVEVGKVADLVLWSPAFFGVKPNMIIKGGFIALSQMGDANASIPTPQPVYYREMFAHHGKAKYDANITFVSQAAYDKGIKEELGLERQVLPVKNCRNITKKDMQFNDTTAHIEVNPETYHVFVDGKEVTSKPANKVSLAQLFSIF
smiles,measurement,value
O=C(O[C@@H]1Cc2c(O)cc(O)cc2O[C@@H]1c1cc(O)c(O)c(O)c1)c1cc(O)c(O)c(O)c1 [(–)-epigallocatechin gallate],IC50,30 µM
